Measurements from US12295957B2, “Ascorbic acid and quinone compounds in combination with an antiparasitic agent for treating a parasitic disease” (IC-MedTech Corp., priority 2018, dated 2025).
“Also recorded” adds a separate entry of the source.

How the values were obtained:
Assay type in all cases: in vivo, BALB/c mice
Trypanosoma cruzi [1] = assay: Survival/mortality of mice with acute Trypanosoma cruzi infection; conditions: for mortality: vitamin C 200 mg/kg or vitamin K3 3.5 mg/kg alone, orally once a day
Procedure: (§1) Male BALB/c mice (approximately 7-8 weeks) were infected intraperitoneally with 10^4 parasites per mouse. Treatment started 24 hours after infection. The administration of vitamin C (i.e., L-ascorbic acid), vitamin K3 (i.e., 2-methyl-1,4-naphthoquinone or menadione), APATONE®, and benznidazole, alone or in combination, were administered once a day orally in different concentrations.
(§2) The mice were divided into the following groups and each group contained seven mice: • i. infected and not treated; • ii. infected and treated with 200 mg/kg of vitamin C; • iii. infected and treated with 3.5 mg/kg of vitamin K3; • iv. infected and treated with APATONE® (200 mg/kg of vitamin C and 3.5 mg/kg of vitamin K3); • v. infected and treated with APATONE® (200 mg/kg of vitamin C and 3.5 mg/kg of vitamin K3) plus 5 mg/kg benznidazole; • vi. infected and treated with benznidazole at 5 mg/kg; • vii. infected and treated with benznidazole at 100 mg/kg; and • viii. not infected and not treated.
(§3) Parasitemia levels were individually checked every day starting from 3 days postinfection (dpi) over a 21-day period by direct microscopic analysis of 5 μL blood drawn by puncture of the tail tip of each mouse. The parasites present in 50 fields were counted in 40× objective. Mortality was checked daily until 21 dpi and was expressed as a percentage of survival. All assays were carried out after the approval of the Ethical Conduct on the use of Animals in Experiments (CEAE) of UE111, protocol number CEUA 6642060717.

IL-6 = assay: Heart cytokine level (cytokine bead array, flow cytometry) in T. cruzi infected mice: IL-6
Procedure: (§4) Cytokine analysis was performed on the mice infected with T. cruzi. A cytokine bead (CBA) kit was used to quantify the levels of Th1 cytokines (IL-2, TNF-α, and INF-γ), Th2 (IL-4, IL-5, and IL-10A), and Th17 (IL-17) by flow cytometry. Seven bead populations with different fluorescence intensities were conjugated to a specific capture antibody for each cytokine, mixed to the CBA and read […] FL3 channel of a FACSCalibur flow cytometer. The populations of beads were visualized according to their respective fluorescence intensities: from less bright to brighter.
(§5) Acquisition tubes were prepared with: 50 μL of a sample, 50 μL of beads, and 50 μL of Th1/Th2/Th17 PE (Mouse Th1/Th2/Th17 PE Detection Reagent/1 vial, 4 mL). The same procedure was performed to obtain a standard curve. The samples in the tubes were homogenized and incubated for three hours at room temperature in dark. The data acquisition and analysis were performed using a FACSCalibur flow cytometer equipped with a CellQuest software.
(§6) The levels of proinflammatory (IL-6, TNF-α, INF-γ, IL-2, and IL-17) and anti-inflammatory cytokines (IL-4 and IL-10) in heart (FIG. 3) in blood were determined on the mice infected with T. cruzi. […] However, the levels of IL-6 and TNF-α in this group were still high compared with the uninfected and untreated group. […] Thus, it is likely that the high levels of IL-6 and TNF-α in the mice infected with T. cruzi and treated with benznidazole (5 mg) are related to the inflammatory process induced by the parasite in the bloodstream. […] Thus, it is likely that the high levels of IL-6 and TNF-α in the mice infected with T. cruzi and treated with benznidazole (100 mg) are related to the proinflammatory activity of benznidazole (a side effect). […] The levels of IL-6, TNF-α, and IFN-γ in the group treated with APATONE® and benznidazole (5 mg/kg/day) in combination are similar to the levels of IL-6, TNF-α and IFN-γ in the uninfected and untreated group.

Trypanosoma cruzi [2] = assay: Parasitemia by direct microscopic count of blood in mice infected with Trypanosoma cruzi; conditions: 3-21 dpi
Procedure: as §1, §2
as §3, with “All assays were carried out after the approval of the Ethical Conduct on the use of Animals in Experiments (CEAE) of UE111, protocol number CEUA 6642060717.” left out

TNF-α = assay: Heart cytokine level (cytokine bead array, flow cytometry) in T. cruzi infected mice: TNF-α
Procedure: as §4, §5, §6

[3] = benznidazole alone at 5 mg/kg, seven mice per group, until 21 dpi

Compound: O=C(Cn1ccnc1[N+](=O)[O-])NCc1ccccc1 [benznidazole]
- mice remaining (Trypanosoma cruzi [1]; [3]): 4 mice
- mice that died (Trypanosoma cruzi [1]; [3]): Three mice died
- mice that died (Trypanosoma cruzi [1]; benznidazole alone at 100 mg/kg, until 21 dpi): No mice died
- level of IL-6 in heart compared with the infected and untreated group (IL-6; benznidazole at 5 mg): significant decrease
- level of IL-6 in heart compared with the uninfected and untreated group (IL-6; benznidazole at 5 mg): still high
- level of IL-6 in heart compared with the infected and untreated group (IL-6; benznidazole at 100 mg): significant decrease
- level of IL-6 in heart compared with the uninfected and untreated group (IL-6; benznidazole at 100 mg): still high
- parasites in the bloodstream (parasitemia) (Trypanosoma cruzi [2]; benznidazole alone at 5 mg/kg orally once a day, 5 mg/kg): did not decrease the amount of parasites
- parasites in the bloodstream (parasitemia) (Trypanosoma cruzi [2]; benznidazole alone at 100 mg/kg orally once a day, 100 mg/kg): no parasite was observed; also recorded: no parasite detected
- level of TNF-α in heart compared with the infected and untreated group (TNF-α; benznidazole at 5 mg): significant decrease
- level of TNF-α in heart compared with the uninfected and untreated group (TNF-α; benznidazole at 5 mg): still high
- level of TNF-α in heart compared with the infected and untreated group (TNF-α; benznidazole at 100 mg): significant decrease
- level of TNF-α in heart compared with the uninfected and untreated group (TNF-α; benznidazole at 100 mg): still high

Compound: CC1=CC(=O)c2ccccc2C1=O [vitamin K3, 2-methyl-1,4-naphthoquinone]
- mortality (Trypanosoma cruzi [1]): died from day 14

Compound: O=C1O[C@H]([C@@H](O)CO)C(O)=C1O [vitamin C, L-ascorbic acid]
- mortality (Trypanosoma cruzi [1]): died from day 14
